Experimental data reported in patent US20240269157A1, “COMPOSITIONS AND METHODS FOR OVERCOMING MICROENVIRONMENT-MEDIATED RESISTANCE VIA E-SELECTIN TARGETING” (GLYCOMIMETICS, INC., priority 2021, published 2024).

Columns and labels:
E-selectin = molecular target: T1, E-selectin (Homo sapiens, UniProt P16581); test: Compound A binding to E-selectin (KD)
T1 sequence (P16581 22-610): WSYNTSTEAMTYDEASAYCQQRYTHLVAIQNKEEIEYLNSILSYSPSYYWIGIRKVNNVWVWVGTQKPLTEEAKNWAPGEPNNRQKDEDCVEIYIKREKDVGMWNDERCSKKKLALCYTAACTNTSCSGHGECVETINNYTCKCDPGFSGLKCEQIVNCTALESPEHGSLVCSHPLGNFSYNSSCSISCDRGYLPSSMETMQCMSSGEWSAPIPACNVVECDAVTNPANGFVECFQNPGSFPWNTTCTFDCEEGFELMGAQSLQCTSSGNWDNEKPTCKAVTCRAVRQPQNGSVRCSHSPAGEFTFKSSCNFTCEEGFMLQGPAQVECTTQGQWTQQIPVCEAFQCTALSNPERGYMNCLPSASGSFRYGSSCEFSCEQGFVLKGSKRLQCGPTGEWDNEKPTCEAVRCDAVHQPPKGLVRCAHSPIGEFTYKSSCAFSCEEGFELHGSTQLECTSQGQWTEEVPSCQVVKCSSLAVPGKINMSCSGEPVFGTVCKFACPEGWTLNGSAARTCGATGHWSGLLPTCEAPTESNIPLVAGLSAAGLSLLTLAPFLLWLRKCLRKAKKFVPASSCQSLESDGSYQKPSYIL

[1] = tested on: PDX AML (Flt3-ITD and WT1 mutations, sorafenib-resistant); test: PDX model (Flt3-ITD and WT1 mutations, sorafenib-resistant), CyTOF after 2 days; type: in vivo, mice
Method: To delineate the mechanism of E-selectin at the onset of drug-mediated changes in AML signaling signatures, another PDX model was employed (Flt3-ITD and WT1 mutations, sorafenib-resistant).
PDX mice with advanced AML (more than 20% human AML cells circulation in peripheral blood) were administered vehicle control, venetoclax (25 mg/kg)/HMA (5.5 mg/kg), Compound A (200 mg/kg), or a combination therapy for 2 days. After 2 days of bolus drug administration, mice were sacrificed and subjected to CyTOF analysis (FIGS. 9A-C). Single cell proteomics analysis by CyTOF determined that combinatorial treatment of Compound A with venetoclax/HMA diminished levels of Ki67, IDU, and pRb compared to vehicle control or venetoclax/HMA alone, resulting in decreased proliferation of AML blasts.

KG1 cells = test: Flow cytometry of E-selectin-PE and HECA-452-FITC reactivity with KG1 cells; type: cell-based, human; conditions: 100 nM 5-AZA
Method: The increased adhesion of KG1 cells to E-selectin following treatment with 5-AZA was further examined by flow cytometry. Cells were cultured for 96 hours in the presence or absence of 100 nM 5-AZA. The binding of E-selectin-PE (E-selectin-Fc chimera conjugated with R-phycoerythrin) to the cells was determined by flow cytometry. In addition, the reactivity of the cells with HECA-452 monoclonal antibody, which specifically reacts with sialyl Lewis A/X carbohydrate structures and is a surrogate marker of E-selectin ligand, was determined by flow cytometry.
Specifically, KG1 cells were centrifuged at 250×g for 10 minutes, washed with HBSS containing 0.1% bovine serum albumin (HBSS/BSA), and resuspended in HBSS/BSA to approximately 3×10^6 cells per mL. The cells were treated with Fc receptor blocker (Miltenyi Biotech) and 100 μL aliquots (3×10^5 cells) were added to 12×75 mm Falcon polypropylene tubes. Cells were treated with either 5 μL E-selectin-Fc-PE reagent or 20 μL HECA-452-FITC antibody, placed at 4° C. for 45 minutes, washed with 2 mL then again with 1 mL HBSS/BSA. Final cell pellets were resuspended in 500 μl HBSS/BSA and analyzed on an Attune N×T flow cytometer. E-selectin was conjugated with R-phycoerythrin using the PE/R-phycoerythrin conjugation kit—Lightning-Link (Abcam ab102918).

| Compound | Kd (E-selectin) [µM] | oncogenic signaling pathways MAPK, p-S6, and STAT3 ([1]; Compound A added to venetoclax/HMA) | activation of PI3K and AKT in AML blasts and BM CD31+EC cells ([1]; mouse, in vivo) | eNOS phosphorylation in EC ([1]; mouse, in vivo) | increase in MFI, HECA-452 (KG1 cells; 96 hours) [%] | increase in median fluorescence intensity, E-selectin-PE (KG1 cells; 96 hours) [%] | increase in the percentage of cells reactive with E-selectin-PE (KG1 cells; 96 hours) [%] | increase in the percentage of cells reactive with HECA-452 (KG1 cells; 96 hours) [%] | percentage of cells reactive with HECA-452 (KG1 cells; 96 hours (untreated 37.8%)) [%] | percentage of cells reactive with E-selectin-PE (KG1 cells; 96 hours (untreated 38.4%)) [%] | MFI, HECA-452 (KG1 cells; 96 hours (untreated 621)) | median fluorescence intensity (MFI), E-selectin-PE (KG1 cells; 96 hours (untreated 940)) |
| --- | --- | --- | --- | --- | --- | --- | --- | --- | --- | --- | --- | --- |
| CCC1CC(C(=O)NCCNC(=O)CCOCCOCCOCCOCCOCCOCCOCCOCCOCCOCCOCCOC)C[C@@H](O[C@@H]2OC(CO)[C@H](O)C(O[C@@H](CC3CCCCC3)C(=O)O)C2NC(C)=O)[C@@H]1OC1O[C@@H](C)[C@H](O)C(O)[C@@H]1O (stereo partly drawn) [Compound A] | ~0.45 | inhibited | reduced | decreased |  |  |  |  |  |  |  |  |
| Nc1ncn([C@@H]2O[C@H](CO)[C@@H](O)[C@H]2O)c(=O)n1 [5-azacitidine] |  |  |  |  | 26 | 38 | 38 | 27 | 47.9 | 52.9 | 783 | 1299 |
